Measurements from patent US9603829B2, “HSP90 inhibitors with modified toxicity” (THE REGENTS OF THE UNIVERSITY OF COLORADO, a body corporate, priority 2011, dated 2017).

Experiments:
yeast Hsp90 ATPase = yeast Hsp90 ATPase (Saccharomyces cerevisiae, UniProt P02829); assay: Purified recombinant yeast Hsp90 ATPase activity; format: biochemical; conditions: in the absence and presence of NQO1
Description: In vitro testing was performed to verify that 19-substitutions prevent GSH conjugation of benzoquinone ansamycins (BQAs). Referring to FIG. 6, reactions were performed in 50 mM potassium phosphate buffer, pH 7.4 containing 50 μM benzoquinone ansamycin in the absence (solid bars) and presence (hatched bars) of 5 mM GSH. At the indicated times (GM series, 15 min; DMAG series, 3 hr; AAG series, 16 hr) the reactions were stopped and BQA concentrations were determined by HPLC. […] The 19-substituted benzoquinone ansamycins were also tested in vitro for inhibition of Hsp90. Referring to FIG. 7, purified recombinant yeast Hsp90 ATPase activity was measured in reactions with 19-substituted BQAs in the absence and presence of NADPH quinone oxidoreductase 1 (NQO1). Results are expressed as percent of DMSO control (mean±SD n=3).
The parent BQA's inhibited purified Hsp90 much more readily in the presence of NQO1 to generate the hydroquinone and this could be blocked by the inhibitor ES936. […] This could be blocked by the NQO1 inhibitor ES936.

SHSY-5Y cells = assay: MTT growth inhibition assay in SHSY-5Y dopaminergic cells; format: cell-based, human; conditions: Homo sapiens, SH-SY5Y, read-out: SHSY-5Y IC50
Description: The 19-substituted benzoquinone ansamycins were also tested in vitro for their ability to reduce the toxicity of BQAs to SH-SY5Y cells a dopaminergic model system of relevance to neurodegenerative disease. Referring to FIG. 9, toxicity of BQAs in SH-SY-5Y cells was measured using trypan blue exclusion (panel A), MTT growth inhibition assay (panel B) and annexin V/PI staining for apoptosis (panel C). Cells in A and C were treated with BQAs (5 μM) for 16 h; cells in B were treated with BQAs for 4 h then allowed to grow in drug-free medium for 72 h. […] The combination of these two properties are likely to be important to the neuroprotective properties of the 19-substituted BQAs.
Growth inhibition assays (MTT) were conducted in human SHSY-5Y cells following a 4 hr treatment with GA or 19Me-GA. Cell were allowed to grow for 72 hrs following drug treatment. The 19-methyl substituted compounds in all series were minimally toxic (see FIG. 12 for data with geldanamycin, MTT assay, results are expressed as the mean±SD, n=3).

[1] = test system: Hsp90 (Raf-1, AKT, CDK4, Her2 degradation, Hsp70 induction); assay: Immunoblot biomarkers of Hsp90 inhibition in BT474 cells; format: cell-based, human; conditions: cell line not given
Description: (§1) The inventors extended the studies with 19-substituted DMAG analogs to include the Her2^+ human breast cancer cell line BT474 (FIG. 15). Growth inhibition (FIG. 15, left panel) was measured in BT474 cells following treatment with analogs for 4 hr. Growth inhibition (MTT) was performed 72 h following drug treatments. Biomarkers of Hsp90 inhibition, Raf-1, AKT, CDK4 and Her2 degradation as well as Hsp70 induction were measured by immunoblot analysis in human BT474 breast cancer cells following treatment with 19-substituted DMAG analogs (5 μM) for 24 hr ([…], left panel).

Hsp90 = assay: Biomarkers of Hsp90 inhibition in MiaPaCa2 cells; format: cell-based, human; conditions: 5 μM, 24 hr (FIG. 16C)
Description: (§2) The inventors also examined the ability of 19 BQAs to inhibit the growth of human pancreatic cancer cell lines (FIG. 16). For growth inhibition studies (MTT) cells were treated with drugs for 4 hr and then allowed to grow for 72 h. For biomarker studies MiaPaCa2 cells were treated with DMAG analogs (5 μM) for 24 hr. 19 BQAs inhibit the growth of human pancreatic cancer cell lines (FIG. 16A, 16B) and induce biomarkers of Hsp90 inhibition (FIG. 16C) using isogenic Panc-1 (NQO1 null) and Panc-1/C5 (NQO1 expressing) cell lines.

[2] = test system: primary mouse hepatocytes; assay: Hepatotoxicity in primary mouse hepatocytes (MTT); format: cell-based; conditions: 4 hr, confirmed by Trypan Blue and AST leakage
Description: The inventors next tested the effect of 19-substitution of BQAs on hepatotoxicity in isolated hepatocyte systems. Isolated primary mouse hepatocytes were grown on coated 96-well plates and exposed to BQAs for 4 h after which their survival was determined using the MTT assay.
As described above, a major obstacle in the development of BQA as drugs has been their ability to induce hepatotoxicity in preclinical studies. […] Toxicity was measured using MTT assay and confirmed using Trypan Blue and AST leakage. The data shown in FIG. 19 were generated using MTT analysis but similar readouts were obtained using either trypan blue exclusion or leakage of AST from hepatocytes.

cdc37/Hsp90 interaction = assay: Immunoprecipitation of cdc37 with Hsp90 in BT474 and MDA468/NQ16 cells; format: cell-based, human; conditions: 5 μM, 24 hr
Description: Similarly, the association of cdc37 with hsp90 was examined in BT474 cells and MDA468/NQ16 cells by immunoprecipitation following treated with analogs (5 μM) for 24 hr. […] This finding is consistent with X ray data using purified Hsp90 showing that the larger 19-phenyl substituent causes greater conformational change in the Hsp90 structure than smaller 19-substituents (not shown). This also correlates with the differential effect of 19-phenyl and 19-methyl DMAG on clients chaperoned by cdc37 to Hsp90 which include Raf1, Akt, cdc2 and cdk4 (FIGS. 8,9,10).

[3] = test system: MDA468/NQ16 breast cancer cells; assay: MTT growth inhibition in isogenic MDA468/NQ16 and MDA468 cells; format: cell-based, human; conditions: MDA468/NQ16, 4 hours treatment, 72 h growth, MTT
Description: The 19-substituted benzoquinone ansamycins were also tested in vitro for their ability to inhibit growth similar to DMAG in human breast cancer cells (FIG. 10). MDA468/NQ16 breast cancer cells were treated with 19-substituted DMAG analogs for 4 hours, after which drug-containing media was removed and cells were allowed to grow for an additional 72 h. Cell viability was determined using the MTT assay.
(§3) The ability of 19-substituted BQAs to induce growth inhibition was measured by MTT in isogenic MDA468 (null NQO1) and MDA468/NQ16 (high NQO1) cells. […] Biomarkers of Hsp90 inhibition (Raf-1, AKT degradation and Hsp70 induction) were more pronounced in MDA468/NQ16 cells compared to MDA468 cells following treatment with 19-substituted DMAG analogs.

[4] = test system: Hsp90 (Raf-1, AKT degradation and Hsp70 induction); assay: Biomarkers of Hsp90 inhibition in MDA468/NQ16 cells; format: cell-based, human; conditions: MDA468/NQ16 (high NQO1) cells
Description: as §3

p23/Hsp90 interaction = assay: Immunoprecipitation of p23 and Hsp90 in BT474 cells; format: cell-based, human; conditions: 5 μM, 24 hr
Description: Forward and reverse immunoprecipitation studies were performed in BT474 cells treated with DMAG analogs (5 μM) for 24 hr.

[5] = test system: MiaPaCa2 human pancreatic cancer cells; assay: MTT growth inhibition in MiaPaCa2 cells; format: cell-based
Description: as §2

[6] = test system: BT474 human breast cancer cells; assay: MTT growth inhibition in BT474 cells; format: cell-based; conditions: BT474, 4 hr treatment, MTT 72 h later
Description: as §1

[7] = test system: human pancreatic cancer cell lines (Panc-1, Panc-1/C5); assay: MTT growth inhibition in human pancreatic cancer cell lines; format: cell-based
Description: as §2

purified human NQO1 = purified human NQO1 (Homo sapiens, UniProt P15559); assay: Reduction by purified recombinant human NQO1 (HPLC); format: biochemical; conditions: 50 μM, NADH 200 μM, rhNQO1 5 μg, 15 min; blocked by ES936
Description: To confirm bioreduction by NQO1 19Ph-GA was incubated with purified human NQO1 and analyzed by HPLC. […] Reactions with purified rhNQO1 (FIG. 14, panels A and B): 19Ph-GA (50 μM) was incubated with NADH (200 μM) in the absence and presence of purified rhNQO1 (5 μg). After 15 min reactions were stopped and analyzed by HPLC. Panel A; chromatograph overlays of 19Ph-GA, NADH (black) and 19Ph-GA, NADH and NQO1 (red). […] Panel B; chromatograph of 19Ph-GA, NADH, NQO1 and ES936. No 19Ph-GA hydroquinone formation is observed in the presence of the NQO1 inhibitor ES936.

Chain of yeast Hsp90 ATPase (P02829 whole entry): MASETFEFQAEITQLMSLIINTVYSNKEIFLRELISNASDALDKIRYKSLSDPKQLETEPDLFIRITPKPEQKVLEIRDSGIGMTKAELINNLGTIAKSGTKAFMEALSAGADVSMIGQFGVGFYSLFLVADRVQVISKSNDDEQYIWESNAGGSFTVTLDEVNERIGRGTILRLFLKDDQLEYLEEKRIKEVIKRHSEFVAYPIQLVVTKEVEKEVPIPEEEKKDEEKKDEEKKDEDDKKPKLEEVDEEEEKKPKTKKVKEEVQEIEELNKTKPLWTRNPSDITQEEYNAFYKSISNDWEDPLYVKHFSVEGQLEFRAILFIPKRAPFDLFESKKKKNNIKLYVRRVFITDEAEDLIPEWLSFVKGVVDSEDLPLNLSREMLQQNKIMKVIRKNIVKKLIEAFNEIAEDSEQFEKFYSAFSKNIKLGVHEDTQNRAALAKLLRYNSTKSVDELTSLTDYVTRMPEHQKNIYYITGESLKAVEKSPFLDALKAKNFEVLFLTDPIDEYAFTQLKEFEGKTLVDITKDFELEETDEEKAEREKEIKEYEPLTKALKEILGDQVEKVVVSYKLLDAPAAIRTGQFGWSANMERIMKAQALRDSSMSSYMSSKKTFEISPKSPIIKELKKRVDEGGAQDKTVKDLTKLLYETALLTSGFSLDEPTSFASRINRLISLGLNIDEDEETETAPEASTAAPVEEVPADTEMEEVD
Chain of purified human NQO1 (P15559 whole entry): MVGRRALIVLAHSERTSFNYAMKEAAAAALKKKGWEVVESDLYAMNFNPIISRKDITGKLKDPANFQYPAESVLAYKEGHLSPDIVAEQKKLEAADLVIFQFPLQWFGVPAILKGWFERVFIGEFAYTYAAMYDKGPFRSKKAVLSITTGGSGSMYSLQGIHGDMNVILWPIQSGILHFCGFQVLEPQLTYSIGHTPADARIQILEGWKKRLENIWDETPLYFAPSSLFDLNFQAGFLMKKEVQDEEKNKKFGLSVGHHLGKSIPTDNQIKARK

SMILES	inhibition of Hsp90 ATPase activity (yeast Hsp90 ATPase)	IC50 (SHSY-5Y cells) [µM]	effects on clients chaperoned by cdc37 to Hsp90 (Raf1, Akt, cdc2, cdk4) [1]	induction of biomarkers of Hsp90 inhibition (Hsp90)	hepatotoxicity [2]	interaction of cdc37 with Hsp90 (cdc37/Hsp90 interaction)	potency at killing breast cancer cells relative to DMAG [3]	Hsp70 induction [4]	Raf-1 and AKT degradation [4]	interaction of p23 and Hsp90 (p23/Hsp90 interaction)	IC50 ([5]; Homo sapiens, MIA PaCa-2, read-out: IC50 MiaPaCa2) [nM]	potency relative to 19Me-DMAG, growth inhibition ([5]; MiaPaCa2 cells)	growth inhibition [6]	sensitivity of Panc-1/C5 (high NQO1) relative to NQO1-null Panc-1 cells ([7]; FIG. 16B)	growth inhibitory activity ([7]; human pancreatic cancer cell lines, 4 hr treatment, 72 h growth, MTT (FIG. 16A))	reduction to hydroquinone by NQO1 (purified human NQO1)
C=CCNc1c(O)cc2c(O)c1C[C@@H](C)C[C@H](OC)[C@H](O)[C@@H](C)/C=C(\C)[C@H](OC(N)=O)[C@@H](OC)/C=C\C=C(/C)C(=O)N2 [17AAG hydroquinone]	inhibition of yeast Hsp90 ATPase activity	–	–	–	–	–	–	–	–	–	–	–	–	–	–	–
CO[C@H]1/C=C\C=C(/C)C(=O)NC2=C(c3ccccc3)C(=O)C(NCCN(C)C)=C(C[C@@H](C)C[C@H](OC)[C@H](O)[C@@H](C)/C=C(\C)[C@@H]1OC(N)=O)C2=O [19Ph-DMAG, (4E,6Z,8S,9S,10E,12S,13R,14S,16R)-19-(2-(Dimethylamino)ethylamino)-13-hydroxy-8,14-dimethoxy-4,10,12,16-tetramethyl-3,20,22-trioxo-21-phenyl-2-azabicyclo[16.3.1]docosa-1 (21),4,6,10,18-pentaen-9-yl carbamate]	–	> 20	marked	pronounced induction of biomarkers of Hsp90 inhibition	no toxicity was observed	disrupted the interaction of cdc37 with Hsp90	greater potency at killing breast cancer cells than DMAG	equal Hsp70 induction compared to DMAG	more pronounced Raf-1 and AKT degradation	disrupted the interaction of p23 and Hsp90	3000 ± 600	greater than 10 fold	induced growth inhibition	more sensitive	marked growth inhibitory activity	–
COC1=C2C[C@@H](C)C[C@H](OC)[C@H](O)[C@@H](C)/C=C(\C)[C@H](OC(N)=O)[C@@H](OC)/C=C\C=C(/C)C(=O)NC(=C(c3ccccc3)C1=O)C2=O [19Ph-GA, 19-phenylgeldanamycin]	–	> 10	–	–	–	–	–	–	–	–	–	–	–	–	–	reduced to the more polar 19Ph-GA hydroquinone
